In US6984632B1, “Complexes of paroxetine, with cyclodextrins or cyclodextrin derivatives” (Italfarmaco S.p.A., priority 1999, dated 2006):
Converted amounts (≈) assume the structure as drawn. Counter-ions that a name gives are not always drawn.

Tests used:
Format in all cases: physicochemical
[1] = Stability at 60° C., visual examination
Description: About 200 mg of paroxetine base and 1 g of the complex of Example 9 (corresponding to about 180 mg of paroxetine base) have each been introduced in a neutral white glass containers and stored, opened, in an oven at 60° C.
The product in the two containers has been visually examined after 48 hours of storage.

[2] = Solubility in water of complex of Example 9 vs non-complexed paroxetine base; details: thermodynamic from solid; deionised water, room temperature, 4 hours stirring, spectrophotometry at 293 nm; read-out: solubility (content of paroxetine base in the solution)
Description: 5 g of the product of Example 9 were added to 10 ml of deionised water and kept under stirring for 4 hours at room temperature.
The suspension was then filtered through a cellulose acetate filter in order to remove the undissolved product.
The solution was analysed by 293 nm spectrophotometry against a standard solution of paroxetine base.

[3] = Solubility in water of complexes of Examples 1-5 vs non-complexed paroxetine HCl; details: thermodynamic from solid; deionized water, 25° C., 24 hours stirring, spectrophotometry at 295 nm
Description: A solubility test was carried out on an amount of the complexes of Examples 1 to 5 corresponding 500 mg of paroxetine HCl and, as a comparison, on 500 mg of non-complexed paroxetine HCl.
Each sample was introduced into a container containing 5 ml of deionized water. The containers, closed with a plug were then set under stirring in a thermostatic bath at 25° C. for 24 hours.
The obtained suspensions were then filtered through a cellulose acetate filter and analysed by spectrophotometry at 295 nm, in comparison with a standard solution of paroxetine.
The results obtained are reported in FIG. 1 wherein the solubility of paroxetine HCl (in mg/ml) is represented as a function of the molar ratio between β-cyclodextrin and paroxetine HCl.

SMILES	visual appearance ([1]; 48 h 60° C., open glass container)	visual appearance ([1]; Initial)	solubility at 4 h [2] [µg/mL]	solubility at 24 h [3] [µg/mL]
Fc1ccc([C@@H]2CCNC[C@H]2COc2ccc3c(c2)OCO3)cc1 [Paroxetine base, Paroxetine]	Brown liquid	Straw-Yellow liquid	300 (≈ 911 µM)	–
Fc1ccc([C@@H]2CCNC[C@H]2COc2ccc3c(c2)OCO3)cc1 [non-complexed paroxetine HCl, paroxetine HCl]	–	–	–	5000
